In patent publication US20240425457A1, “COMPOSITIONS AND METHODS FOR SUPPRESSING AND/OR TREATING METABOLIC DISEASES AND/OR A CLINICAL CONDITION THEREOF” (CK Biotech Inc., priority 2018, published 2024):
“Also recorded” adds a separate entry of the source.

Key:
Format in all cases: in vivo
[1] = tested on: HFD+STZ-induced diabetes mice; experiment: HFD-fed and STZ-induced diabetes mice
Excerpt: (§1) Animals. The generation of Cxxc5^−/− mice has been described previously. Cxxc5 heterozygous mice were intercrossed for four generations to obtain littermate wild-type and Cxxc5^−/− mice and were maintained on a C57BL/6 background. Six-week-old Cxxc5^+/+ and Cxxc5^−/− mice were fed HFD for 8 weeks. Wild-type male C57BL/6 mice (KOATECH, Seoul, Korea) were fed HFD consisting of 60% calories from fat (Research Diet, D12492) for 8 weeks. To validate that the insulin resistance mouse model was successfully established, fasting glucose levels were assessed with a One Touch Ultra glucometer (LifeScan). Subsequently, each HFD-fed mouse with a fasting glucose level higher than 16.7 mmol/L was orally administered A3334 (25 mg kg^−1), sitagliptin (50 mg kg^−1), or metformin (100 mg kg^−1) each day for 5 days at weeks 8 and 12. After the removal of the drugs, mice were maintained for 3 weeks on the HFD. To monitor pancreas regeneration, six-week-old Cxxc5^+/+ and Cxxc5^−/− mice were fed an HFD as above. After dietary treatment for 4 weeks, the mice were intraperitoneally injected with STZ (50 mg/kg/d) for 1 week and the control group were injected with saline. After 2 weeks, Cxxc5^+/+ mice were administered A3334 (25 mg kg^−1) and sitagliptin (50 mg kg^−1) per day by oral gavage for 4 weeks. For GTT or ITT, mice were injected with D-glucose (1.5 g/kg body weight) after overnight starvation or human insulin (0.75 units/kg body weight) after 4 h starvation, respectively. Tail blood was drawn at 0, 15, 30, 60, 120, 180 min intervals and blood glucose level was measured with a One Touch Ultra glucometer. All mice were maintained under temperature-controlled and light-controlled (standard 12 h light/dark cycle) conditions and provided with food and water ad libitum. All protocols were reviewed and approved by the Institutional Review Board of Severance Hospital, Yonsei University College of Medicine (09-013).
β-Cell and α-cell mass analyses. All of the β-cell, α-cell and the cross-sectional area of all pancreatic tissue were quantified. Total β-cell and α-cell area and total pancreas mass for each animal was calculated as the sum of the determinations from each of the 8-10 segments of pancreas. A total of 10-15 beta cells was counted for each pancreas.
A3334 suppressed diabetes induced by multiple low-dose STZ-induced diabetes. Referring now to FIG. 40A-40G, C57BL/6N mice were induced diabetes by HFD for 8 weeks, and induced diabetes by injection of 50 mpk streptozotosin (STZ) for 1 week. After 2 weeks, A3334 (25 mpk) or SITA (25 mpk) was applied for 4 more weeks, histological analyses of pancreas were done.

[2] = tested on: normal (Chow) mice; experiment: normal diet (NCD/Chow) fed mice treated with A3334
Excerpt: No effect of A3334 on mice fed with normal diet. To evaluate whether the A3334 treatment would have any effect on normal diet fed mice, C57BL/6N mice were fed normal diet for 16 weeks with or without oral administration of 25 mpk A3334.

[3] = tested on: HFD-induced diabetes mice; experiment: HFD-induced diabetes mice, A3334 versus rosiglitazone, one 5-day course
Excerpt: Referring now to FIG. 37A-37E, C57BL/6N mice were fed HFD for 8 weeks to induce diabetes. Then, the mice were maintained on HFD and treated with either 25 mpk A3334 or 25 mpk rosiglitazone (RSG) once per day for next 5 days. Then, the mice were maintained HFD condition without any drug treatments (e.g., A3334 or RSG) for the next several weeks. Rosiglitazone (RSG) is a diabetes drug in thiazolidinedione (TZD) class which works as an insulin sensitizer functioning via binding PPAR in fat cells.
Referring now to FIG. 45A-45F, C57BL/6N mice were induced diabetes by HFD for 8 weeks, and then treated with A3334 (25 mpk) or RSG (25 mpk) once per day for 5 days starting at week 8 under HFD condition. Animals were sacrificed at week 11.

[4] = tested on: db/db diabetes mice; experiment: db/db diabetes mice; details: 1 and 2 weeks of treatment
[5] = tested on: HFD-fed mice; experiment: HFD-induced obesity/diabetes mice, 5-day oral courses at weeks 8/9 and 12
Excerpt: as §1
Blood chemistry. Total blood of mice was collected by cardiac puncture after fasting. The blood was allowed to clot for 30 min and was then centrifuged for 10 min at 1,000×g to obtain supernatant to measure metabolic parameters. ELISA assay kits were used to assess serum insulin (Millipore), serum FFA (Cayman Chemical), serum adiponectin (ABclonal). The insulin function test was evaluated by HOMA-IR and was calculated as fasting plasma glucose (m mol/l)×fasting serum insulin (mU/l)/22.5. Serum chemistry variables included total cholesterol, HDL-cholesterol, glucose, TG, ALT, AST, ALP, Ca, and Mg concentration. The calibration of serum parameters was performed using the quality control card supplied with the FUJI DRI-CHEM slides whenever slides from a new lot were used. […]
Hematoxylin and eosin (H&E) staining. Dissected tissues were fixed in 4% neutral paraformaldehyde and embedded in paraffin. The paraffin sections were cut at a thickness of 4 μm and subjected to H&E staining. The adipocyte cell size was measured in 20 randomly chosen microscopic areas from 3 independent animals using a Nikon bright-field optical microscope (Nikon TE-2000U). The average adipocyte size was determined using Image J software. […]
Metabolic monitoring and body composition. Metabolic performance (energy intake and energy expenditure) was studied using a PHENOMASTER automated combined indirect calorimetry system (TSE system GmBH). The mice were first acclimated for 24 h in a metabolic chamber and were provided with food and water. They were then subsequently evaluated for 3 days to measure oxygen consumption (VO2), carbon dioxide production (VCO2), ambulatory counts, and respiratory exchange ratio. An LF50 body composition analyzer (Bruker) was used to determine body composition (lean body mass and total body fat) of the mice. The temperature for these studies remained at 22° C., with a 12 h light/dark cycle. Standard in-house software was used for energy expenditure.
Quantitative real-time polymerase chain reaction (PCR). […]

[6] = 25 mpk, 5 days from week 8, sacrifice week 11
[7] = HFD 8 weeks, then 25 mpk once per day for 5 days
[8] = HFD mice, 5-day courses at weeks 8/9 and 12, A3334 25 mg/kg, 25 mg/kg

Question: What does the source list for `COc1ccc2c(c1)/C(=C1/Nc3ccccc3/C1=N\O)C(=O)N2` [Compound A3334, 5-Methoxyindirubin-3′-oxime]?
Answer: body weight [1]: slightly increased; proliferative status of β-cells (PCNA+) [1]: exhibited normal proliferative status after the A3334 treatment; glucose tolerance test and insulin tolerance test ([1]; 4 weeks p.o.): improved the results from the glucose tolerance test (GTT) and insulin tolerance test (ITT); blood / fasting glucose level ([1]; A3334 25 mpk, SITA 25 mpk, 4 weeks): lowered the glucose level; also recorded: more significantly lowered by A3334 compared to that by SITA; β-cell and α-cell mass ([1]; IHC insulin and glucagon): increased and decreased, respectively, by the A3334 treatment; pancreatic islets / β-cells (insulin, β-catenin, PCNA, Pdx-1) ([1]; histology/IHC): restores β-cell mass and functions; also recorded: showed normal islets with insulin secretion and increased expression levels of β-catenin, PCNA, and Pdx-1; also recorded: mostly protected with the A3334 treatment; effect on normal diet fed mice (fat size, organ weight, ALT and AST) ([2]; 25 mg/kg/d p.o.): has no effect in NCD mice; also recorded: did not have any effect on normal (Chow) mice; also recorded: no observation of metabolic disease phenotypes; also recorded: did not show any differences on size of fats (FIG. 36A-36B), weight of organs (FIG. 36D), and level of ALT and AST in blood serum; histology of normal diet fed mice ([2]; 25 mpk p.o.): no histological differences were observed; liver steatosis [3, 6]: suppressed by A3334; mRNA levels of lipogenesis markers in liver [3, 6]: suppressed by A3334; serum insulin and total cholesterol levels [3, 6]: abolished by A3334; ALT and AST in blood serum [3, 7]: not evident; GTT and ITT [3, 7]: significant reduction of both GTT and ITT; body weight gain [3, 7]: suppressed the body weight gain induced by HFD; fasting glucose level after termination of drug treatment [3, 7]: maintained at low level for several weeks; CXXC5, β-catenin, crown like structures, PPARγ and macrophage markers ([3]; HFD 8 weeks, then 25 mpk once per day for 5 days, immunostaining): suppressed overexpression of CXXC5, increased expressions of β-catenin, suppressed formation of crown like structures (CRC), and suppressed the expression of PPARγ and macrophage markers; PPARγ mRNA level ([3]; white adipose tissue, 25 mpk): not increased by A3334; mRNA of M1 and M2 macrophage markers ([3]; white adipose tissue, 25 mpk): decreased and increased by A3334, respectively; mRNA of Wnt/β-catenin signaling target genes (Dvl1, Wisp1, Fosl1) ([3]; white adipose tissue, 25 mpk): increased by A3334; fasting glucose level [4]: reduces fasting glucose levels; thermogenesis and beige-fat markers in scWAT ([5]; HFD (DIO) mice): exhibited elevated thermogenesis and beige-fat markers; Ca++ and Mg++ levels in serum ([5]; HFD mice): without any effect on Ca^++ and Mg^++ imbalance; also recorded: not significantly changed; F4/80+ and CD11b+ cells / inflammation in adipose tissue ([5]; HFD mice): the populations of F4/80^+ and CD11b^+ cells decreased; also recorded: also suppressed by A3334; energy expenditure and activity ([5]; HFD mice): increases energy expenditure via enhancing brown- and beige-fat activation; also recorded: higher energy expenditure and more active behavior than vehicle-treated mice; mRNA of M1 and M2 macrophage marker genes in epiWAT ([5]; HFD mice): decreased and increased in the epiWAT of A3334-treated mice, respectively; respiratory exchange ratio ([5]; HFD mice): lower respiratory exchange ratio; serum ALT, AST, FFA (and TG) ([5]; HFD mice): mostly suppressed by the A3334 treatment; also recorded: reduced by A3334; also recorded: also lowered by A3334; also recorded: significantly lowered by A3334; transition of brown adipocytes to white adipocytes, UCP1 and GLUT4 ([5]; HFD mice): suppressed by the A3334 treatment together with recovery of the levels of UCP1 and GLUT4; serum adiponectin level ([5]; HFD mice (FIG. 38G)): increased by A3334; glucose tolerance and insulin tolerance (GTT/ITT) [5, 8]: significantly improved the systemic glucose tolerance and insulin resistance; also recorded: most significantly reduced by A3334; insulin resistance (fasting insulin, HOMA-IR) [5, 8]: improves diet-induced obesity and insulin resistance; also recorded: improved insulin resistance; also recorded: reduced by A3334; also recorded: mostly resolved by A3334 administration; body weight and food intake ([5]; HFD mice, A3334 25 mg/kg): the body weights were decreased without significant changes in food intake; fat mass (body composition, tissue weights) ([5]; HFD mice, A3334 25 mg/kg): reduction of overall fat mass; levels of GTT/ITT, total cholesterol, fasting glucose, triglyceride, FFAs in serum ([5]; HFD mice, A3334 25, metformin 100, sitagliptin 50 mpk (FIG. 38B-38F)): most significantly reduced by A3334; hepatic steatosis (lipid droplets, fatty liver, hepatic TG) ([5]; HFD mice, H&E, Oil Red O): did not form lipid droplets with a reduction in the hepatic TG levels; also recorded: totally abolished by the A3334 treatment; also recorded: suppressed by A3334; Cxxc5 and β-catenin expression in epiWAT ([5]; HFD mice, IHC): Cxxc5 expression was mostly abolished and only a small amount remained in the nucleus with the elevation of nuclear β-catenin; UCP1 protein level in BAT and scWAT ([5]; HFD mice, IHC): the protein level increment of the major thermogenin uncoupling protein 1 (UCP1) was confirmed in BAT and scWAT; crown-like structures and adipocyte size in white adipose tissue ([5]; HFD mice, epiWAT/WAT, H&E): significantly decreased the number of CLSs as well as the size of adipocytes; also recorded: suppressed HFD-induced increase in cell size and the expression of PPARγ and C/EBPα; also recorded: inhibited by the A3334 treatment; oxygen consumption (VO2) and carbon dioxide production (VCO2) ([5]; HFD mice, light and dark periods): consumed higher oxygen (VO2) and exhaled more carbon dioxide (VCO2); Wnt/β-catenin signaling target genes in liver ([5]; HFD mice, mRNA): induction of Wnt/β-catenin signaling target genes; also recorded: significantly increased by A3334 treatment; Wnt/β-catenin target genes and lipogenesis/inflammation genes in white adipose tissue ([5]; HFD mice, mRNA): upregulated with the regression of the lipogenesis genes; also recorded: significantly lowered by the A3334 treatment; lipogenesis and gluconeogenesis genes in liver ([5]; HFD mice, mRNA): repressed in the liver of A3334-treated mice; also recorded: significantly lowered by the A3334 treatment; also recorded: reduced by both A3334 and SITA, but A3334 showed better effectiveness; thermogenesis / mitochondria biogenesis markers in BAT ([5]; HFD mice, mRNA): significantly elevated expression levels of the key thermogenesis markers; also recorded: all increased by the A3334 treatment; persistence of fasting glucose control after end of treatment ([5]; HFD mice, p.o. daily 5 days at weeks 8/9 and 12, A3334 25, sitagliptin 50, metformin 100 mg/kg): prolonged effectiveness for the control of fasting glucose levels; also recorded: unexpected long-lasting glucose controlling effect; also recorded: long lasting effect in suppression of fast glucose level; also recorded: most significant and long last effects on fasting glucose control effect; fasting glucose level ([5]; HFD mice, p.o. daily 5 days at weeks 8/9 and 12, A3334, A3051, I3O 25, sitagliptin 50, metformin 100 mg/kg): lower in the A3334 treatment than in the sitagliptin and metformin treatment groups; also recorded: reduced similarly by treatment with all of these compounds at initial applications; endocrine and metabolic parameters: total cholesterol, HDL-cholesterol, TG, adiponectin ([5]; HFD mice, plasma, overnight fasted): much better effects than sitagliptin- and metformin-treated mice; secretory proteins/adipokines, protein chip ([5]; HFD mice, serum): decreased the expression levels of various secretory proteins
